From PubChem BioAssay (NCI)
“And” between values parts separate entries of the source, which are not always exact repeats. Identical values can stand only once.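 Cells were grown in 96-well plates and exposed to each compound for 48 hours at five concentrations; endpoints were interpolated linearly between bracketing concentrations, or set to the highest concentration if not reached. Abbreviation: GI50, concentration required for 50% inhibition of growth. TGI: concentration producing complete growth inhibition.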

Tests used:
Test in all cases: DTP human tumour cell line panel, 48 h
A498 renal = tested on: A498 renal
BT-549 breast = tested on: BT-549 breast
HL-60(TB) leukemia = tested on: HL-60(TB) leukemia
K-562 leukemia = tested on: K-562 leukemia
M14 melanoma = tested on: M14 melanoma
MOLT-4 leukemia = tested on: MOLT-4 leukemia
OVCAR-3 ovarian = tested on: OVCAR-3 ovarian
SN12C renal = tested on: SN12C renal
UACC-62 melanoma = tested on: UACC-62 melanoma
COLO 205 colon = tested on: COLO 205 colon

| SMILES | GI50 (A498 renal) | TGI (A498 renal) | GI50 (BT-549 breast) | TGI (BT-549 breast) | GI50 (HL-60(TB) leukemia) | TGI (HL-60(TB) leukemia) | GI50 (K-562 leukemia) | TGI (K-562 leukemia) | GI50 (M14 melanoma) | TGI (M14 melanoma) | GI50 (MOLT-4 leukemia) | TGI (MOLT-4 leukemia) | GI50 (OVCAR-3 ovarian) | TGI (OVCAR-3 ovarian) | GI50 (SN12C renal) | TGI (SN12C renal) | GI50 (UACC-62 melanoma) | TGI (UACC-62 melanoma) | GI50 (COLO 205 colon) | TGI (COLO 205 colon) |
| --- | --- | --- | --- | --- | --- | --- | --- | --- | --- | --- | --- | --- | --- | --- | --- | --- | --- | --- | --- | --- |
| COC12C=C/C(=C(/C(=O)OCc3ccccn3)C(=O)CCCCCCCCC3(OC)C=C/C(=C(/C(=O)OCc4ccccn4)C(=O)CCCCCCCC1)O3)O2 | 1060 nM | 2290 nM | 401 nM | 2070 nM | 306 nM | 2170 nM | 331 nM | > 100000 nM | 252 nM | 571 nM | 301 nM | > 100000 nM | 326 nM | 1100 nM | 356 nM | 1210 nM | 348 nM | 1220 nM | – | – |
| Cc1cc2c(cc1Cl)S/C(=C/C(=O)O)C(Nc1ccc3ncsc3c1)=NS2(=O)=O | – | – | 7120 nM | 29000 nM | 9160 nM | > 100000 nM | 42800 nM | > 100000 nM | 12700 nM | > 38100 nM | 5500 nM | > 26800 nM | 14000 nM | 41200 nM | 16500 nM | > 64800 nM | 33500 nM | > 57700 nM | > 26700 nM | > 33900 nM |
| Nc1ccc(C2=CC(c3ccc(Cl)cc3)N3C=CSC3=N2)cc1 (stereo unspecified) | 6170 nM | 23800 nM | 2640 nM | 7000 nM | 6130 nM | 53500 nM | – | – | 2860 nM | 7430 nM | 4030 nM | 89700 nM | 2790 nM | 7430 nM | 6400 nM | 26900 nM | 4400 nM | 18100 nM | 8590 nM | 20600 nM |
| COc1ccc2c(c1)c(-c1nc(-c3c[nH]c4ccncc34)cs1)cn2C | 1650 nM | 3090 nM | 1810 nM | 3450 nM | 1680 nM | 3500 nM | 716 nM | 2470 nM | 1780 nM | 3260 nM | – | – | 1880 nM | 3340 nM | 1690 nM | 3240 nM | 1820 nM | 3350 nM | – | – |
| COc1cc(/C=C/C(=O)/C=C/c2ccc(-n3ccnc3C)cc2)ccc1O | 10400 nM | 23700 nM | 1970 nM | 4820 nM | 3260 nM | 32500 nM | 3320 nM | > 100000 nM | 2250 nM | 5940 nM | 4050 nM | > 100000 nM | 2850 nM | 8410 nM | 2360 nM | 6630 nM | 4490 nM | 21300 nM | 3400 nM | 12100 nM |
| COc1ccc(-c2nc(-c3ccc(C)cc3)cn3ccnc23)cc1 | – | – | 26400 nM | > 50000 nM | 2580 nM | > 50000 nM | 815 nM | 3920 nM | 3230 nM | > 50000 nM | 22300 nM | > 50000 nM | 4460 nM | > 50000 nM | 6120 nM | > 50000 nM | 4390 nM | > 50000 nM | 2870 nM | > 50000 nM |
| CNC(=O)c1c(NC(=O)c2ccc(C(C)(C)C)cc2)sc2c1CCC(=O)C2 | 647 nM | 3620 nM | 352 nM | 1680 nM | 261 nM | 1580 nM | 65.9 nM | > 100000 nM | 346 nM | 1790 nM | 314 nM | 2050 nM | 444 nM | 1600 nM | 333 nM | 1400 nM | 262 nM | 1280 nM | 200 nM | 462 nM |
| COc1ncc(Nc2ncc([C@@H](C)N3CCN(S(C)(=O)=O)CC3)cc2-c2nc(C)nc(N)n2)cc1F | < 10 nM | 30.9 nM | 21.9 nM | 6230 nM | 21.4 nM | > 57300 nM | 14300 nM | > 100000 nM | 2160 nM | 38800 nM | 40.2 nM | 4130 nM | 46.8 nM | 11200 nM | 68.6 nM | > 33600 nM | < 11.3 nM | 1200 nM | 122 nM | 15300 nM |
| CCCCCCCCCCCCCCCCCCn1cc[n+](C)c1 | 1070 nM | 3090 nM | 1170 nM | 2710 nM | 143 nM and 293 nM | 336 nM and 1670 nM | 385 nM and 312 nM | > 100000 nM | – | – | 189 nM and 650 nM | – | 366 nM | 1270 nM | 1070 nM and 826 nM | 2470 nM and 2300 nM | 1040 nM | 2300 nM | 350 nM | 1280 nM |
| COc1cc(Nc2ncc(-c3ccccc3)o2)cc(OC)c1 | 5570 nM | > 25000 nM | > 25000 nM | > 25000 nM | > 25000 nM | > 25000 nM | > 22500 nM | > 25000 nM | > 25000 nM | > 25000 nM | > 18700 nM | > 25000 nM | > 25000 nM | > 25000 nM | > 25000 nM | > 25000 nM | > 25000 nM | > 25000 nM | > 25000 nM | > 25000 nM |
| COc1ccc(/C(COc2ccc3oc(-c4ccccc4)cc(=O)c3c2)=N\O)cc1 | – | – | 836 nM | 5500 nM | – | > 23200 nM | – | > 33300 nM | 321 nM | > 50000 nM | 678 nM | > 50000 nM | < 5 nM | 53.8 nM | 231 nM | 4540 nM | 33.8 nM | 2220 nM | 606 nM | 19200 nM |
| CC1C(C)N(C(=O)CCl)c2ccccc2N1C(=O)CCl (stereo unspecified) | 1590 nM | 3140 nM | 849 nM | 2410 nM | 211 nM | 535 nM | 282 nM | 2370 nM | 597 nM | 2200 nM | 243 nM | 810 nM | 194 nM | 428 nM | 793 nM | 3050 nM | 624 nM | 2100 nM | 399 nM | 973 nM |
| CCN(Cc1ccccc1)C1CCN(Cc2cc(Br)ccc2O)CC1 | 9290 nM | > 100000 nM | 44400 nM | > 100000 nM | 31300 nM | 98800 nM | 26600 nM | > 100000 nM | 20700 nM | 54500 nM | 32600 nM | > 100000 nM | 80600 nM | > 100000 nM | 42900 nM | > 100000 nM | 26600 nM | > 100000 nM | 17000 nM | 39600 nM |
